# Target: T1, Polyunsaturated fatty acid 5-lipoxygenase (Homo sapiens, UniProt P09917)
# T1 sequence (P09917 whole entry): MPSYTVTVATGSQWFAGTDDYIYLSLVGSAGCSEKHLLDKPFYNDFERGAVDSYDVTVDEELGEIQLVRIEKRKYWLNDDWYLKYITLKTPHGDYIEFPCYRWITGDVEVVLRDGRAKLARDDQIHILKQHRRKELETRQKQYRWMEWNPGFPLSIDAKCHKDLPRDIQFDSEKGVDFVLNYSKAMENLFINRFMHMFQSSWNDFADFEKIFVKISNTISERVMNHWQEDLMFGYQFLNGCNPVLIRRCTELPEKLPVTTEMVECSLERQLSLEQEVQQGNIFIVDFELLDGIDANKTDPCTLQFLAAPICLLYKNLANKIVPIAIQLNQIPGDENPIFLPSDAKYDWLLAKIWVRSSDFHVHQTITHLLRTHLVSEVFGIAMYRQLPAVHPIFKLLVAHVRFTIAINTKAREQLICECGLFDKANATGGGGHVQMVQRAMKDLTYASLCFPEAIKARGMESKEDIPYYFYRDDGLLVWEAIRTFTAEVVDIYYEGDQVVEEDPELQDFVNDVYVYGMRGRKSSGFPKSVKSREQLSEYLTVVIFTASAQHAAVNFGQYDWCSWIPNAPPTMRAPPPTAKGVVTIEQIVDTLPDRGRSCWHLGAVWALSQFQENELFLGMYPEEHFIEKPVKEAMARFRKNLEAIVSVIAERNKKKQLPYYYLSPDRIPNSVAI
# Experiment: 5-LO Activity Assay
# Method: Purified 5-LO was diluted in PBS containing EDTA (1 mM) and freshly added ATP (1 mM) and incubated with the myxochelin test substances for 10 min at 4°C, followed by 30 s at 37°C. Addition of CaCl2 (2 mM) and arachidonic acid (20 µM) initiatedthe 5-LO product formation. After 10 min, the reaction was terminated by adding ice-old MeOH (1 mL), and the production of 5-LO metabolites was analyzed by RP-HPLC.
row,Structure (SMILES),IC50 [µM]
1,O=C(NCCCC[C@@H](CO)NC(=O)c1cccc(O)c1O)c1ccccc1 [Myxochelin J1],3.15
2,O=C(NCCCC[C@@H](CO)NC(=O)c1cccc(O)c1O)c1ccccc1Cl [Myxochelin J13],4.6
3,O=C(NCCCC[C@@H](CO)NC(=O)c1ccccc1O)c1ccccc1O [Myxochelin J5],9.32
4,O=C(N[C@H](CO)CCCCNC(=O)c1c(O)cccc1F)c1cccc(O)c1O [Myxochelin J6],1.44
5,O=C(N[C@H](CO)CCCCNC(=O)c1cccc(O)c1O)c1ccccc1Cl [Myxochelin J14],3.64
6,O=C(NCCCC[C@@H](CO)NC(=O)c1ccccc1F)c1ccccc1F [Myxochelin J11],> 10
7,O=C(N[C@H](CO)CCCCNC(=O)c1cccc(O)c1O)c1ccccc1F [Myxochelin J10],8.09
8,O=C(NCCCC[C@@H](CO)NC(=O)c1c(O)cccc1F)c1cccc(O)c1O [Myxochelin J7],1.18
9,O=C(NCCCC[C@@H](CO)NC(=O)c1cccc(O)c1O)c1ccccc1F [Myxochelin J9],8.4
10,O=C(N[C@H](CO)CCCCNC(=O)c1cccc(O)c1O)c1ccccc1 [Myxochelin J2],2.39
11,O=C(N[C@H](CO)CCCCNC(=O)c1cccc(O)c1O)c1ccccc1O [Myxochelin J4],3.54
12,O=C(NCCCC[C@@H](CO)NC(=O)c1cccc(O)c1O)c1cccc(O)c1O [Myxochelin A],1.72
13,O=C(NCCCC[C@@H](CO)NC(=O)c1cccc(O)c1O)c1ccccc1O [Myxochelin J3],1.52
14,O=C(NCCCC[C@@H](CO)NC(=O)c1cccc(F)c1)c1cccc(F)c1 [Myxochelin J12],> 10
15,O=C(NCCCC[C@@H](CO)NC(=O)c1c(O)cccc1F)c1c(O)cccc1F [Myxochelin J8],3.6

# Reference: BindingDB's records for doi:10.1002/cbic.201500446 (Hans Knöll Institute, 2015)
